The results in this text go back to PubChem BioAssay (NCI).

Test systems include ACHN renal; BT-549 breast; CCRF-CEM leukemia; COLO 205 colon; HCT-116 colon; HOP-62 NSCLC; IGROV1 ovarian; KM12 colon; LOX IMVI melanoma; MALME-3M melanoma; NCI-H460 lung; OVCAR-3 ovarian; OVCAR-5 ovarian; RPMI-8226 leukemia; SF-539 CNS; SK-MEL-5 melanoma; SK-OV-3 ovarian; T-47D breast; U251 CNS; UACC-62 melanoma.
What all share (experiment): NCI-60 cell line screen, 48 h

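All cell lines were grown in 96-well plates and treated with compound for 48 hours. TGI marks complete inhibition of growth.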 A value given as a limit tells only on which side of the number the result lay.

On to `CCOC(=O)C(Cc1cn(S(=O)(=O)c2ccc(C)cc2)cn1)P(=O)(OCC)OCC` (stereo not given), for which the TGI with ACHN renal, with BT-549 breast, in the experiment on CCRF-CEM leukemia, in the experiment on COLO 205 colon, in the experiment on HCT-116 colon and in the experiment with HOP-62 NSCLC was more than 100 µM in each case. The TGI in the experiment with IGROV1 ovarian, with KM12 colon, with LOX IMVI melanoma, in the experiment on MALME-3M melanoma, in the experiment with NCI-H460 lung and with OVCAR-3 ovarian was more than 100 µM throughout. Also, the TGI with OVCAR-5 ovarian, with RPMI-8226 leukemia, with SF-539 CNS, in the experiment with SK-MEL-5 melanoma, in the experiment with SK-OV-3 ovarian and with T-47D breast was more than 100 µM throughout. In addition, the TGI with U251 CNS and in the experiment on UACC-62 melanoma was more than 100 µM throughout.
`CN(NC(=O)c1cccs1)C1=NCCN1`: the TGI with ACHN renal, in the experiment on BT-549 breast, with CCRF-CEM leukemia, in the experiment on COLO 205 colon, in the experiment with HCT-116 colon and in the experiment with HOP-62 NSCLC was more than 100 µM in each case. Further, the TGI with IGROV1 ovarian, in the experiment with KM12 colon, with LOX IMVI melanoma, in the experiment on MALME-3M melanoma, in the experiment on NCI-H460 lung and with OVCAR-3 ovarian was more than 100 µM throughout. For the same molecule, the TGI in the experiment with OVCAR-5 ovarian, with RPMI-8226 leukemia, in the experiment with SF-539 CNS, with SK-MEL-5 melanoma, in the experiment with SK-OV-3 ovarian and in the experiment with T-47D breast was more than 100 µM throughout. Further, the TGI in the experiment with U251 CNS and with UACC-62 melanoma was more than 100 µM each time.
Turning to `CCCCOc1ccc(S(=O)(=O)/N=C(\NN)Nc2ccc(Cl)cc2)cc1`, the TGI was more than 100 µM in the experiment on ACHN renal; more than 100 µM with BT-549 breast; 47.6 µM with CCRF-CEM leukemia; 38.5 µM in the experiment with COLO 205 colon; 42.9 µM with HCT-116 colon; 38.5 µM with HOP-62 NSCLC. Besides, the TGI is 60.2 µM in the experiment on IGROV1 ovarian; more than 100 µM with KM12 colon; 35.6 µM with LOX IMVI melanoma; 86.3 µM in the experiment on MALME-3M melanoma; 31.9 µM in the experiment on NCI-H460 lung; 46.8 µM in the experiment on OVCAR-3 ovarian. For the same molecule, the TGI is 52.9 µM in the experiment on OVCAR-5 ovarian; more than 100 µM with RPMI-8226 leukemia; 36.7 µM in the experiment with SF-539 CNS; more than 100 µM in the experiment with SK-MEL-5 melanoma; 67.4 µM with SK-OV-3 ovarian; 46.2 µM with T-47D breast. Moreover, the results for the TGI in the experiment on U251 CNS and with UACC-62 melanoma were 30.2 µM and more than 100 µM, respectively.
Turning to `Oc1[nH]c2ccccc2c1N=NC(=S)N1CCCC1`, the TGI amounted to 4.55 µM in the experiment with ACHN renal; 22.8 µM in the experiment on BT-549 breast; 6.78 µM in the experiment with CCRF-CEM leukemia; 27.5 µM in the experiment with COLO 205 colon; 21.5 µM in the experiment with HCT-116 colon; 26.2 µM with HOP-62 NSCLC. Moreover, the TGI is 15 µM in the experiment on IGROV1 ovarian; more than 49.5 µM in the experiment with KM12 colon; 18.3 µM in the experiment with LOX IMVI melanoma; 9.82 µM with MALME-3M melanoma; 9.42 µM in the experiment on NCI-H460 lung; 17 µM in the experiment on OVCAR-3 ovarian. The TGI is more than 82.6 µM in the experiment on OVCAR-5 ovarian; 9.64 µM in the experiment with RPMI-8226 leukemia; 10.7 µM in the experiment on SF-539 CNS; 8.5 µM in the experiment with SK-MEL-5 melanoma; 21.6 µM in the experiment on SK-OV-3 ovarian; 85.1 µM in the experiment on T-47D breast. Also, the TGI in the experiment with U251 CNS is 22.6 µM; in the experiment on UACC-62 melanoma, 18.2 µM.
Regarding `CC1(C)C(=O)C2(C#N)CCC1C2` (stereo not given), the TGI in the experiment with ACHN renal, with BT-549 breast, in the experiment with CCRF-CEM leukemia, in the experiment on COLO 205 colon, with HCT-116 colon and in the experiment with HOP-62 NSCLC was more than 100 µM throughout. Also, the TGI in the experiment with IGROV1 ovarian, with KM12 colon, in the experiment with LOX IMVI melanoma, in the experiment with MALME-3M melanoma, in the experiment on NCI-H460 lung and with OVCAR-3 ovarian was more than 100 µM in each case. Besides, the TGI in the experiment on OVCAR-5 ovarian, in the experiment on RPMI-8226 leukemia, in the experiment on SF-539 CNS, in the experiment with SK-MEL-5 melanoma, with SK-OV-3 ovarian and with T-47D breast was more than 100 µM throughout. The TGI with U251 CNS and in the experiment with UACC-62 melanoma was more than 100 µM throughout.
